Structures can show the parent of a compound that is named as a salt.
Row | Structure (SMILES) | melting point
1 | C=CCNc1nc(NCC=C)c2cc(NC)ccc2n1 (as salt: hydrochloride) | 155 to 158 °C
2 | C=CCNc1nc(N(CC=C)CC=C)nc2c(C)csc12 (as salt: hydrochloride) | 136 to 138 °C (dec.)
3 | C=CCNc1nc(NC(=O)NC(C)(C)C)c2scc(C)c2n1 (as salt: hydrochloride) | 192 to 194 °C
4 | C=CCNc1nc(NCc2ccco2)nc2ccc([N+](=O)[O-])cc12 (as salt: hydrochloride) [Example 33, 4-Allylamino-2-furfurylamino-6-nitroquinazoline hydrochloride] | 217 to 218 °C
5 | C=CCNc1nc(NC2CCCCC2)c2scc(C)c2n1 (as salt: hydrochloride) [Example 70, 2-Allylamino-4-cyclohexylamino-7-methylthieno[3,2-d] pyrimidine hydrochloride] | 140 to 142 °C
6 | C=CCNc1nc(N(CC=C)CC=C)c2scc(C)c2n1 (as salt: hydrochloride) [Example 71, 2-Allylamino-4-diallylamino-7-methylthieno[3,2-d] pyrimidine hydrochloride] | 76 to 78 °C (dec.)
7 | C=CCNc1nc(NCc2ccccc2)c2cc([N+](=O)[O-])ccc2n1 [Example 12, 2-Allylamino-4-benzylamino-6-nitroquinazoline] | 235 to 236 °C
8 | C=CCNc1nc(N2CCCCC2)c2cc([N+](=O)[O-])ccc2n1 [Example 13, 2-Allylamino-6-nitro-4-piperidinoquinazoline] | 123 to 124 °C
9 | C=CCNc1nc(NCC=C)c2cc(N)ccc2n1 [Example 14, 2,4-Diallylamino-6-aminoquinazoline] | 212 to 215 °C
10 | C=CCNc1nc(N(CC=C)CC=C)nc2ccc(Cl)cc12 [Example 15, 4-Allylamino-2-diallylamino-6-chloroquinazoline] | 73 to 74 °C
11 | C=CCNc1nc(NC/C=C/c2ccccc2)c2cc([N+](=O)[O-])ccc2n1 [Example 23, 2-Allylamino-4-trans-cinnamylamino-6-nitroquinazoline] | 206 to 208 °C
12 | C=CCNc1nc(NCCCCCCC)nc2ccc([N+](=O)[O-])cc12 [Example 36, 4-Allylamino-2-heptylamino-6-nitroquinazoline] | 173 to 174 °C
13 | C=CCNc1nc(NN2CCCCC2)nc2ccc([N+](=O)[O-])cc12 [Example 37, 4-Allylamino-6-nitro-2-piperidinoaminoquinazoline] | 221 to 222 °C
14 | C=CCNc1nc(NCCOCCC)nc2ccc([N+](=O)[O-])cc12 [Example 38, 4-Allylamino-6-nitro-2-(2-propoxyethylamino)quinazoline] | 169 to 170 °C
15 | C=CCNc1nc(NCCCCCCCCCCCC)c2cc([N+](=O)[O-])ccc2n1 [Example 47, 2-Allylamino-4-dodecylamino-6-nitroquinazoline] | 154 to 155 °C
16 | C=CCNc1nc(NCCCCCCCCCCCC)nc2ccc([N+](=O)[O-])cc12 [Example 48, 4-Allylamino-2-dodecylamino-6-nitroquinazoline] | 148 to 155 °C
17 | C=CCNc1nc(NC23CC4CC(CC(C4)C2)C3)c2cc([N+](=O)[O-])ccc2n1 [Example 52, 4-(1-Adamantylamino)-2-allylamino-6-nitroquinazoline] | 224 to 225 °C
18 | C=CCNc1nc(NCCC(=O)N2CCCCC2)nc2ccc([N+](=O)[O-])cc12 [Example 53, 4-Allylamino-6-nitro-2-[2-(piperidinocarbonyl)ethylamino] quinazoline] | 178 to 179 °C
19 | C=CCNc1nc(NCc2ccccn2)nc2ccc([N+](=O)[O-])cc12 [Example 54, 4-Allylamino-6-nitro-2-(2-pyridylmethylamino)quinazoline] | 202 to 203 °C
20 | C=CC(C)Nc1nc(NCCCC)nc2ccc([N+](=O)[O-])cc12 (centres unmarked) [Example 62, 2-Butylamino-4-(1-methyl-2-propenylamino)-6-nitroquinazoline] | 156 to 158 °C
21 | C=CCNc1nc(NC(C)C=C)c2cc([N+](=O)[O-])ccc2n1 (centres unmarked) [Example 63, 2-Allylamino-4-(1-methyl-2-propenylamino)-6-nitroquinazoline] | 172 to 173 °C
22 | C=CC(C)Nc1nc(NC(C)C=C)c2cc([N+](=O)[O-])ccc2n1 (centres unmarked) [Example 64, 2,4-Bis(1-methyl-2-propenylamino)-6-nitroquinazoline] | 122 to 125 °C
23 | C=CCNc1nc(NC(C)C=C)nc2ccc([N+](=O)[O-])cc12 (centres unmarked) [Example 65, 4-Allylamino-2-(1-methyl-2-propenylamino)-6-nitroquinazoline] | 123 to 124 °C
24 | C=CCNc1nc(NCC(C)(C)C)c2scc(C)c2n1 [Example 67, 2-Allylamino-7-methyl-4-neopentylaminothieno[3,2-d] pyrimidine] | 90 to 92 °C
25 | C=CCNc1nc(NCc2ccccc2)c2scc(C)c2n1 [Example 69, 2-Allylamino-4-benzylamino-7-methylthieno[3,2-d] pyrimidine] | 97 to 98 °C

Results, then the compound that gave them:

Row | melting point | Structure (SMILES)
26 | 219 to 220 °C | C=CCNc1nc(NC(C)CC)nc2ccc([N+](=O)[O-])cc12 (centres unmarked) (as salt: hydrochloride)
27 | 208 to 209 °C | C=CCNc1nc(NC(C)(C)C)c2cc([N+](=O)[O-])ccc2n1 (as salt: hydrochloride)
28 | 176 to 177 °C | C=CCNc1nc(NC(C)CC)c2cc([N+](=O)[O-])ccc2n1 (stereo not drawn) (as salt: hydrochloride) [Example 49, 2-Allyiamino-4-(l-methylpropylamino)-6-nitroquinazoline hydrochloride]
29 | 164 to 165 °C | C=CCNc1nc(NCCOC)nc2ccc([N+](=O)[O-])cc12 [Example 8, 4-Allylamino-2-(2-methoxyethylamino)-6-nitroquinazoline]
30 | 167 to 168 °C | C=CCNc1nc(N(CC=C)CC=C)nc2ccc([N+](=O)[O-])cc12 [Example 9, 4-Allylamino-2-diallylamino-6-nitroquinazoline]
31 | 216 to 217 °C | C=CCNc1nc(NCC(C)(C)C)c2cc([N+](=O)[O-])ccc2n1 [Example 11, 2-Allylamino-4-neopentylamino-6-nitroauinazoline]
32 | 238 to 239 °C | C=CCNc1nc(NC)nc2ccc([N+](=O)[O-])cc12 [Example 16, 4-Allylamino-2-methylamino-6-nitroquinazoline]
33 | 227 to 228 °C | C=CCNc1nc(NCC)nc2ccc([N+](=O)[O-])cc12 [Example 17, 4-Allylamino-2-ethylamino-6-nitroquinazoline]
34 | 139 to 140 °C | C=CCNc1nc(NC(C)(C)C)nc2ccc([N+](=O)[O-])cc12 [Example 19, 4-Allylamino-2-t-butylamino-6-nitroquinazoline]
35 | 126 to 128 °C | C=CCNc1nc(NCCN)nc2ccc([N+](=O)[O-])cc12 [Example 20, 4-Allylamino-2-(2-aminoethylamino)-6-nitroquinazoline]
36 | 214 to 215 °C | C=CCNc1nc(NCCCC)c2cc([N+](=O)[O-])ccc2n1 [Example 24, 2-Allylamino-4-butylamino-6-nitroquinazoline]
37 | 192 to 193 °C | C#CCNc1nc(NCC=C)c2cc([N+](=O)[O-])ccc2n1 [Example 29, 4-Allylamino-6-nitro-2-(2-propynylamino)quinazoline]
38 | 188 to 189 °C | C=CCNc1nc(NC/C=C/C)nc2ccc([N+](=O)[O-])cc12 [Example 30, 4-Allylamino-2-(trans-2-butenylamino)-6-nitroquinazoline]
39 | 200 to 201 °C | C=CCNc1nc(NC(=O)NC(C)(C)C)c2cc([N+](=O)[O-])ccc2n1 [Example 40, 2-Allylamino-4-(t-butylcarbamoyl)amino-6-nitroquinazoline]
40 | 105 to 106 °C | C=CCN(C(=O)NC(C)(C)C)c1nc(NC(=O)NC(C)(C)C)c2cc([N+](=O)[O-])ccc2n1 [Example 41, 2-[N-allyl-N-(t-butylcarbamoyl)amino]-4-(t-butylcarbamoyl)amino-6-nitroquinazoline]
41 | 253 to 254 °C | C=CCNc1nc(NC(C)=O)c2cc([N+](=O)[O-])ccc2n1 [Example 42, 4-Acetylamino-2-allylamino-6-nitroquinazoline]
42 | 148 to 149 °C | C=CCNc1nc(NC(=O)OCC(C)C)c2cc([N+](=O)[O-])ccc2n1 [Example 43, 2-Allylamino-4-(2-methylpropoxycarbonyl)amino-6-nitroquinazoline]
43 | 239 to 240 °C | C=CCNc1nc(NC(C)=O)nc2ccc([N+](=O)[O-])cc12 [Example 44, 2-Acetylamino-4-allylamino-6-nitroquinazoline]
44 | 254 to 255 °C | C=CCNc1nc(NC(=O)NCCC)nc2ccc([N+](=O)[O-])cc12 [Example 45, 4-Allylamino-6-nitro-2-(propylcarbamoyl)aminoquinazoline]
45 | 145 to 146 °C | C=CCNc1nc(NN(C)C)c2cc([N+](=O)[O-])ccc2n1 [Example 46, 2-Allylamino-4-(2,2-dimethylhydrazino)-6-nitroquinazoline]
46 | 215 to 216 °C | C=CCNc1nc(NCC(F)(F)F)c2cc([N+](=O)[O-])ccc2n1 [Example 55, 2-Allylamino-4-(2,2,2-trifluoroethylamino)-6-nitroquinazoline]
47 | 221 to 222 °C | C=CCNc1nc(NCC(F)(F)F)nc2ccc([N+](=O)[O-])cc12 [Example 56, 4-Allylamino-2-(2,2,2-trifluoroethylamino)-6-nitroquinazoline]
48 | 194 to 195 °C | C=CCNc1nc(NCC=C(C)C)nc2ccc([N+](=O)[O-])cc12 [Example 58, 4-Allylamino-2-(3-methyl-2-butenylamino)-6-nitroquinazoline]
49 | 209 to 210 °C | C=CCNc1nc(NCC=C(C)C)c2cc([N+](=O)[O-])ccc2n1 [Example 59, 2-Allylamino-4-(3-methyl-2-butenylamino)-6-nitroquinazoline]
50 | 168 to 172 °C | CC(C)=CCNc1nc(NCC=C(C)C)c2cc([N+](=O)[O-])ccc2n1 [Example 61, 2,4-Bis(3-methyl-2-butenylamino)-6-nitroquinazoline]

Source: US20010006969A1, “PYRIMIDINE NUCLEUS-CONTAINING COMPOUND AND A MEDICAMENT CONTAINING THE SAME FOR A BLOOD OXYGEN PARTIAL PRESSURE AMELIORATION, AND A METHOD FOR PREPARING THE SAME” (priority 1997, published 2001)
